From publication PMC3412939 (Biochimica et biophysica acta, 2012)

Assays:
[1] = Acrylamide quenching of tryptophan fluorescence; type: physicochemical; details: 100 μM PC/PG (7:3) SUV, cholesterol-free
[2] = Blue shift of tryptophan emission spectrum on membrane binding; type: physicochemical; details: PC/PG SUV, relative to spectrum without lipid; excitation 280 nm; mean ± SE

Substance: wRVIRLVRVFRIFKLSRH [W-S4]
- Ratio of quenching constants KSV(lipid)/KSV(no lipid) [1]: 0.41 ± 0.03
- Blue shift of tryptophan emission at saturation [2]: 13 ± 2 nm
